This note sets out measurements from publication PMC10539800, “Small-molecule inhibitors of the PDZ domain of Dishevelled proteins interrupt Wnt signalling” (Magnetic resonance, 2021).

Several values for one entry are separate records, joined by “and”; a condition that tells them apart may be missing. Equal values may be shown once.

One assay deals with T1, Dvl-3 PDZ (Homo sapiens, UniProt Q92997).
T1 construct: spectra of Dvl-3 PDZ in the absence and presence of the compound; His-tag (cleaved yes); made in house
T1 sequence (Q92997 243-336): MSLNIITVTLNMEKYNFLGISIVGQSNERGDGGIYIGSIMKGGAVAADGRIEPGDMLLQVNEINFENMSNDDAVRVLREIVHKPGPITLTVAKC
The assay is described as follows: Binding constant by isothermal titration calorimetry (ITC). The settings on record: for Kd: by ITC, one-site binding model, 25 °C, read-out: K D Dvl-3 PDZ; for n (stoichiometry) Dvl-3 PDZ: ITC one-site fit. In general terms: In ITC the heat of successive injections is recorded.

A further assay has as its target T2, Dvl-1 PDZ (Homo sapiens, UniProt O14640, C338S/V250I).
T2 sequence (O14640 245-338 V250I/C338S): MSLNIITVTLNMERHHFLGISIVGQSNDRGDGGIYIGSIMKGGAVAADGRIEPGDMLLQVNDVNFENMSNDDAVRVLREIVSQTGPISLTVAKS
The settings on record: ITC.

Procedure for Dvl-1 PDZ: (§1) Isothermal titration calorimetry (ITC) experiments were performed using a VP-ITC system (MicroCal). Protein in 20 mM HEPES buffer and 50 mM NaCl (pH 7.4) was centrifuged and degassed before the experiment. A 200 µM ligand solution containing 2 % DMSO was injected 30 times in 10 µL aliquots at 120 s intervals with a stirring speed of 1000 rpm into a 1.4 mL sample cell containing the Dvl PDZ domain at a concentration of 20 µM at 25 ^∘ C. Control experiment was initially determined by titrating ligand into buffer at the same conditions. […] Thermodynamic properties and binding constants were determined by fitting the data with a non-linear least-squares routine using a single-site binding model with Origin (OriginLab) for ITC v.7.2 (MicroCal).
Procedure for Dvl-3 PDZ: as §1

Take `O=C(O)c1cc(Br)ccc1NS(=O)(=O)Cc1ccccc1` [Compound 12, 5-Bromo-2-(phenylmethylsulfonamido)benzoic acid]: the Kd at Dvl-3 PDZ is 58.5 µM.
Regarding `CS(=O)(=O)Nc1ccc(F)cc1C(=O)O` [Compound 6], the “binding to Dvl-3 PDZ (in words)” value on Dvl-3 PDZ (ITC) is on record as “millimolar (mM) range”. Further, the Kd on Dvl-3 PDZ was > 1000 µM.
In the case of `O=C(O)c1cccc(S(=O)(=O)Nc2cccc(S(=O)(=O)Nc3ccccc3C(=O)O)c2)c1` [NPL-1011, 3-( {3-[(2-carboxyphenyl)sulfamoyl]phenyl}sulfamoyl)benzoic acid, reference compound], on Dvl-3 PDZ, the “n (stoichiometry) Dvl-3 PDZ” value stood at 0.90 ± 0.08 and the Kd is 79.7 ± 53.3 µM. Also, on Dvl-3 PDZ (ITC, Fig. S7), the “-tΔS Dvl-3 PDZ” value was -11.7 kJ/mol, the “Δ G Dvl-3 PDZ” value was -23 kJ/mol and the “Δ H Dvl-3 PDZ” value was -11.3 ± 5.02 kJ/mol.
On to `O=C(O)c1cc(C(F)(F)F)ccc1NS(=O)(=O)c1ccc2c(c1)OCCO2` [Compound 16, 2-(2,3-Dihydrobenzo[b][1,4]dioxine-6-sulfonamido)-5-(trifluoromethyl)benzoic acid], for which the Kd at Dvl-3 PDZ was 59.1 ± 1.5 µM.
On the same count and under the same terms, with `Cc1cc(C)c(S(=O)(=O)Nc2ccc(C(F)(F)F)cc2C(=O)O)c(C)c1` [Compound 17, 5-(Trifluoromethyl)-2-(2,4,6-trimethylphenylsulfoamido)benzoic acid] the figure was 49.5 µM.
Same read-out and setting: then `O=C(O)c1cc(Br)ccc1NS(=O)(=O)c1ccc2ccccc2c1` [Compound 11, 5-Bromo-2-(naphthalene-2-sulfonamido) benzoic acid], with 13.8 µM.
With `CC1=C(CC(=O)O)c2cc(F)ccc2/C1=C\c1ccc([S+](C)[O-])cc1` (stereo not shown) [Sulindac, reference compound], the “n (stoichiometry) Dvl-3 PDZ” value at Dvl-3 PDZ is given as 0.97 ±0.14. For the same compound, on Dvl-3 PDZ (ITC, Fig. S7), the “-tΔS Dvl-3 PDZ” value is 104 kJ/mol and the “Δ H Dvl-3 PDZ” value was -133 kJ/mol.
In the case of `Cc1ccc(NS(=O)(=O)c2ccc(CNC(=O)c3c[nH]c4ccccc34)c(Cl)c2)c(C(=O)O)c1` [Compound 19], at Dvl-3 PDZ (ITC), the “T Δ S Dvl-3 PDZ” value stood at 0.4 kcal mol ^-1 and the “Δ H Dvl-3 PDZ” value is given as -5.9 kcal mol ^-1. Moreover, the Kd on Dvl-3 PDZ is 21.8 µM and 21 µM. At Dvl-1 PDZ, the “T Δ S Dvl-1 PDZ” value is -0.3 kcal mol ^-1, the “Δ G Dvl-1 PDZ” value is -7.0 kcal mol ^-1 and the “Δ H Dvl-1 PDZ” value is on record as -7.3 kcal mol ^-1.
For the compound `Cc1cc(C)c(S(=O)(=O)Nc2ccc(Br)cc2C(=O)O)c(C)c1` [Compound 14, 5-Bromo-2-(2,4,6-trimethylphenylsulfoamido)benzoic acid], the Kd on Dvl-3 PDZ stood at 58.1 ± 2.1 µM.
Turning to `CC(C)[C@H](OC(=O)[C@H](C)NC(=O)[C@@H](OC(=O)[C@H](C)NC(=O)OC(C)(C)C)C(C)C)C(=O)O` [NSC668036, reference compound], the “binding to Dvl-3 PDZ (in words)” value at Dvl-3 PDZ (ITC) is reported as “did not show high-affinity binding”. Further, on Dvl-3 PDZ, the Kd is > 400 µM.
Regarding `CC(=O)c1ccc(S(=O)(=O)Nc2ccc(C(F)(F)F)cc2C(=O)O)cc1` [Compound 15, 2-(4-Acetylphenylsulfoamido)-5-(trifluoromethyl)benzoic acid], the Kd at Dvl-3 PDZ stood at 52.9 ± 1.7 µM.
As for `O=C(O)c1cc(Br)ccc1NS(=O)(=O)c1ccc(COc2ccccc2)cc1` [Compound 13, 5-Bromo-2-(4-(phenoxymethyl)phenylsulfonamido)benzoic acid], the Kd at Dvl-3 PDZ worked out at 7.2 µM.
